Values joined by “and” are separate entries in the source; they are usually repeats but may differ in a detail not shown here. Identical values can stand only once.
Biological target: SARS-CoV-2 3CLpro (Severe acute respiratory syndrome coronavirus 2, UniProt P0DTD1)
Assay: ED-FRET protease assay with SARS-CoV-2 3CLpro (DABCYL-[…]-EDANS IQF peptide substrate)
Format: biochemical
Conditions: for inhibitory effect on peptide-cleaving activity of SARS-CoV-2 3CLpro (in words): compound 20 μM, FIG. 1; for IC50: IC50, relative 3CLpro activity
[1] = 0.125 μM SARS-CoV-2 3CLpro and 1.25 μM IQF peptide substrate (0.125p/1.25FP)

Structure (SMILES) | inhibitory effect on peptide-cleaving activity of SARS-CoV-2 3CLpro (in words) | IC50 [1] | IC50 (0.25 μM SARS-CoV-2 3CLpro and 2.5 μM IQF peptide substrate) | IC50 (0.5 μM SARS-CoV-2 3CLpro and 5 μM IQF peptide substrate (0.5p/5FP)) | inhibition at 20 µM (read-out: SARS-CoV-2 3CLpro inhibition)
C=C(CC[C@@H](C(=O)O)[C@H]1CC[C@@]2(C)C3=CC[C@H]4C(C)(C)[C@@H](O)CC[C@]4(C)C3=CC[C@]12C)C(C)C [AR101 DS4] | inhibitory effect | – | – | – | –
C=C(CC[C@@H](C(=O)O)[C@H]1C[C@H](OC(C)=O)[C@@]2(C)C3=C(CC[C@]12C)[C@@]1(C)CC[C@H](O)C(C)(C)[C@@H]1CC3)C(C)C [AR101 DS3] | utmost inhibitory effect | 11.7 µM | 11.1 µM | 14.6 µM and 11.1 µM | ~50%
C=C(CC[C@@H](C)[C@H]1CC[C@H]2C3=C(C(=O)C[C@]12C)[C@@]1(C)CC[C@@H](O)[C@](C)(O)[C@@H]1C[C@@H]3O)[C@@H](C)C(=O)O (stereo in doubt) [AR101 DS1] | inhibitory effect | – | – | – | –
C=C1C(=O)O[C@H]2/C=C(\C)CC3C=C(CC/C=C(\C)CC[C@H]12)C(=O)O3 (stereo partly drawn) [AR100 DS1] | inhibitory effect | 21.3 µM | – | – | –

Source: patent US12433901B2, “Compounds and methods for prevention and treatment of coronavirus infections” (ARJIL BIOTECH HOLDING COMPANY LIMITED, priority 2020, dated 2025)
